Data as given in patent US20140303396A1, “Method for Preparing High-Purity Fesoterodine Fumarate” (CHEMI S.P.A., priority 2009, published 2014).

Legend:
[1] = Solid stability at T = 60° C. in atmosphere with 60% relative humidity (HPLC); assay type: physicochemical; parameters: Impurity RRt = 1.05 / Impurity RRt = 1.34 / Diester impurity: unit not given here
Experimental: In confirmation thereof, another stability test was carried out at 60° C. on the crystallized solid product, whose results are reported in Table 2. In detail, the experiment consists of introducing a sample of fesoterodine fumarate in an oven capable of maintaining a temperature of 60° C. and 60% relative humidity, drawing samples of the freshly introduced substance (time 0) after 24, 48, 72 and 144 hours staying in such conditions, and analyzing them in HPLC in order to verify their purity.

[2] = Solution stability in methylethylketone at T = 40° C. (HPLC); assay type: physicochemical
Experimental: In detail, the experiment related to Table 1 consists of dissolving fesoterodine fumarate in methylethylketone at 40° C., drawing samples of the freshly dissolved solution (time 0), after 1, 3 and 20 hours of maintenance at 40° C. and analyzing them in HPLC in order to verify their purity.

SMILES: CC(C)C(=O)Oc1ccc(CO)cc1[C@H](CCN(C(C)C)C(C)C)c1ccccc1.O=C(O)/C=C/C(=O)O [fesoterodine fumarate, 2-((R)-3-diisopropylammonium-1-phenylpropyl)-4-(hydroxymethyl) phenyl isobutyrate hydrogen fumarate]
- (R)-feso-deacyl ([1]; t = 0): 0.02%
- Diester impurity ([1]; t = 0): 0.04
- Feso fumaric ester impurity ([1]; t = 0): 0.09
- HPLC Purity ([1]; t = 0): 99.85 Area %
- (R)-feso-deacyl ([1]; t = 24 h): 0.02%
- Diester impurity ([1]; t = 24 h): 0.04
- Feso fumaric ester impurity ([1]; t = 24 h): 0.11
- HPLC Purity ([1]; t = 24 h): 99.83 Area %
- (R)-feso-deacyl ([1]; t = 48 h): 0.02%
- Diester impurity ([1]; t = 48 h): 0.04
- Feso fumaric ester impurity ([1]; t = 48 h): 0.12
- HPLC Purity ([1]; t = 48 h): 99.74 Area %
- Impurity RRt = 1.34 ([1]; t = 48 h): 0.08
- (R)-feso-deacyl ([1]; t = 72 h): 0.03%
- Diester impurity ([1]; t = 72 h): 0.04
- Feso fumaric ester impurity ([1]; t = 72 h): 0.13
- HPLC Purity ([1]; t = 72 h): 99.72 Area %
- Impurity RRt = 1.05 ([1]; t = 72 h): 0.02
- Impurity RRt = 1.34 ([1]; t = 72 h): 0.06
- (R)-feso-deacyl ([1]; t = 144 h): 0.05%
- Diester impurity ([1]; t = 144 h): 0.04
- Feso fumaric ester impurity ([1]; t = 144 h): 0.14
- HPLC Purity ([1]; t = 144 h): 99.64 Area %
- Impurity RRt = 1.05 ([1]; t = 144 h): 0.03
- Impurity RRt = 1.34 ([1]; t = 144 h): 0.07
- RRt = 1.86 ([1]; t = 144 h): 0.03%
- Feso fumaric ester impurity ([2]; t = 0): 0.07
- HPLC Purity ([2]; t = 0): 99.87 Area %
- Impurity RRt = 1.34 ([2]; t = 0): 0.06
- Feso fumaric ester impurity ([2]; t = 1 hour): 0.09
- HPLC Purity ([2]; t = 1 hour): 99.85 Area %
- Impurity RRt = 1.34 ([2]; t = 1 hour): 0.06
- (R)-feso-deacyl ([2]; t = 3 hours): 0.01%
- Diester impurity ([2]; t = 3 hours): 0.04
- Feso fumaric ester impurity ([2]; t = 3 hours): 0.12
- HPLC Purity ([2]; t = 3 hours): 99.77 Area %
- Impurity RRt = 1.34 ([2]; t = 3 hours): 0.06
- (R)-feso-deacyl ([2]; t = 20 hours): 0.02%
- Diester impurity ([2]; t = 20 hours): 0.06
- Feso fumaric ester impurity ([2]; t = 20 hours): 0.14
- HPLC Purity ([2]; t = 20 hours): 99.70 Area %
- Impurity RRt = 1.34 ([2]; t = 20 hours): 0.08
